Read-outs that look alike come from different tables or passages of the source. *1 amine or outer side, *2 acyl side, *3 side chain or, on linkers, in order; H or OH if unused. Where a SMILES comes first, the peptide text is derived from it. Bridges are numbered along the chain shown (N, C = ends). [ ]: non-standard residue; d: D form. The star is where a group is joined. Leu(3R-O(AcLeu(3R-OH))) = CC(=O)N[C@H](C(=O)O[C@H](C(C)C)[C@H](N)C(=O)O)[C@H](O)C(C)C; Leu(3R-OH,Nα-propionyl) = CCC(=O)N[C@H](C(=O)*)[C@H](O)C(C)C; X1 = CC(C)[C@@H](O[*:3])[C@H](N[*:1])C(=O)[*:2]; NMeT = CN[C@H](C(=O)O)[C@@H](C)O; dPhLac = O=C(O)[C@H](O)Cc1ccccc1; NMeA = CN[C@@H](C)C(=O)O; NMeDha = C=C(NC)C(=O)O
How the values were obtained:
[1] = target: T1, human Gα11 (Homo sapiens, UniProt P29992); test: Competition binding at membranes of HEK-CRISPR-Cas9-Gαq-KO cells expressing Gα11
T1 construct: expressed in transfected cells; membrane preparations
T1 sequence (P29992 1-359): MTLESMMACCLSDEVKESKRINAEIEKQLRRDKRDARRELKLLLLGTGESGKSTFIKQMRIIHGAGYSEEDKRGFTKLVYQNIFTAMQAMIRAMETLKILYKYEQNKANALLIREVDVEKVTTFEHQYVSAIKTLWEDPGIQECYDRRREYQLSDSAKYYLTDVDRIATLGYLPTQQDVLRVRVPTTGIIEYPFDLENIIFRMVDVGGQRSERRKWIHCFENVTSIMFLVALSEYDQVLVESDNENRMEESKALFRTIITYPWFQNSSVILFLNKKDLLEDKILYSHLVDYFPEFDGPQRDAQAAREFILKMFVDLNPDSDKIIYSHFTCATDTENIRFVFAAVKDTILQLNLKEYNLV
Description: (§1) cDNAs encoding for the α‐subunits of the human G11, G14, G15 and mouse Gq guanine nucleotide‐binding proteins in a pcDNA3.1(+) vector were obtained from E. Kostenis. CRISPR/Cas9‐Gαq‐knockout (KO) HEK293 cells were from M. Yamaguchi. The protein sequences of the human and mouse Gαq proteins differ only by one amino acid in position 171 (alanine in human and serine in mouse). […]. After 16 hr, 3 ml of DMEM containing 10% FBS, 1% of a penicillin/streptomycin solution (final concentrations: penicillin = 100 U·ml^−1, streptomycin = 0.1 mg·ml^−1), and sodium butyrate (5 mM) was added to the packaging cells. They were kept at 32°C and 5% CO2 for 48 hr, during which the viral vectors containing the receptor sequence were produced and released into the surrounding medium. These were harvested, filtered ([…] filter pore diameter), and added to HEK293 cells that had previously been modified via CRISPR/Cas9 genome editing to lack Gαq expression. Polybrene solution (6 μl, 4 mg·ml^−1 in H2O, filtered) was added. After 2.5 hr, the virus‐containing medium was discarded, and DMEM supplemented with 10% FBS and 1% of a penicillin/streptomycin solution (final concentrations: penicillin = 100 U·ml^−1, streptomycin = 0.1 mg·ml^−1) was given to the cells. These were incubated for 2 days, followed by selection of successfully transfected cells with geneticin resistance by adding G418 (200 μg·ml^−1) to the medium. The cells were cultured in these media at 37°C and 10% CO2 until membrane preparations were generated.
(§2) Recombinant HEK cells were cultured to 70% of confluence. The culture medium was discarded, and cells were washed once with approximately 5 ml of PBS. Dishes were stored at −20°C until further use. After defrosting, cells were detached with a rubber scraper after adding 5‐mM Tris–HCl, 2‐mM EDTA, pH 7.4. The collected cell suspension was homogenized using an Ultra‐Turrax® for 1 min at a speed level of 4. The cell suspension was transferred into tubes and centrifuged for 10 min at 1,000 g, 4°C. The pellet (P1) was discarded, and the supernatant was centrifuged for 45 min at 48,400 g, 4°C. The resulting supernatant was discarded, and the pellet (P2) was resuspended in 50‐mM Tris–HCl, pH 7.4, and centrifuged again for 45 min at 48,400 g, 4°C. This step was repeated once again, and the suspension was subsequently homogenized using an Ultra‐Turrax® for 1 min at a speed level of 4 (IKA Laborechnik), transferred into cryovials, and stored at −80°C (for up to several months). […]
(§3) The experiments were performed in 50‐mM Tris–HCl buffer, pH 7.4. […] Non‐specific binding was determined in the presence of 5‐μM FR. […] Luma Safe® scintillation cocktail (2.5 ml) was added, and after 6 hr of incubation, the samples were counted for 1 min each, using a liquid scintillation counter (counting efficiency 53%). […]

[2] = target: T2, human Gα14 (Homo sapiens, UniProt O95837); test: Competition binding at membranes of HEK-CRISPR-Cas9-Gαq-KO cells expressing Gα14
T2 construct: expressed in transfected cells; membrane preparations
T2 sequence (O95837 1-355): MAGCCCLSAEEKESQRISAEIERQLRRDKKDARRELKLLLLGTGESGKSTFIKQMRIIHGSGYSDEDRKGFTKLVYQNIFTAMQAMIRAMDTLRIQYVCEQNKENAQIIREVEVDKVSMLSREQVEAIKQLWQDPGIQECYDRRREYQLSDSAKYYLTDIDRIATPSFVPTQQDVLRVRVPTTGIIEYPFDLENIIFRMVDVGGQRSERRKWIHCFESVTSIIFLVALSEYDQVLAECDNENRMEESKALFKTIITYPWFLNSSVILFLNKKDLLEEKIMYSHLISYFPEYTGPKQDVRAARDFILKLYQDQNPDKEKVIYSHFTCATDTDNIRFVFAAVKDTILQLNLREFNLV
Description: as §1, §2, §3

C=C1C(=O)N[C@@H](C)C(=O)N(C)[C@@H](C)C(=O)N[C@@H]([C@H](OC(=O)[C@@H](NC(=O)CC)[C@H](O)C(C)C)C(C)C)C(=O)N(C)[C@@H]([C@@H](C)OC)C(=O)O[C@H](C(C)C)[C@H](NC(C)=O)C(=O)O[C@H](Cc2ccccc2)C(=O)N1C [FR, FR900359] (Ac-[X1][dPhLac][NMeDha]A[NMeA][X1](Leu(3R-OH,Nα-propionyl))[NMeT](Me); ester 1-C)
IC50 [1]: 10.5 nM
Pseudo-Bmax ± SD ([1]; FR versus [³H]PSB-15900 (5 nM), 37°C, G11): 6.23 ± 1.39 pmol/mg
IC50 [2]: 10 nM
Pseudo-Bmax ± SD ([2]; FR versus [³H]PSB-15900 (5 nM), 37°C, G14): 4.37 ± 0.71 pmol/mg

C=C1C(=O)N[C@@H](C)C(=O)N(C)[C@@H](C)C(=O)N[C@@H]([C@H](OC(=O)[C@@H](NC(C)=O)[C@H](O)C(C)C)C(C)C)C(=O)N(C)[C@@H]([C@@H](C)OC)C(=O)O[C@H](C)[C@H](NC(C)=O)C(=O)O[C@H](Cc2ccccc2)C(=O)N1C [YM, YM‐254890] (Ac-T[dPhLac][NMeDha]A[NMeA][Leu(3R-O(AcLeu(3R-OH)))][NMeT](Me); ester 1-C)
Pseudo-Bmax ± SD ([1]; YM versus [³H]PSB-16254 (5 nM), 37°C, G11): 6.23 ± 2.92 pmol/mg
IC50 ([1]; YM versus [³H]PSB-16254 (5 nM), 37°C, G11, read-out: pIC50 ± SD (converted)): 8.71 nM
Pseudo-Bmax ± SD ([2]; YM versus [³H]PSB-16254 (5 nM), 37°C, G14): 3.18 ± 0.48 pmol/mg
IC50 ([2]; YM versus [³H]PSB-16254 (5 nM), 37°C, G14, read-out: pIC50 ± SD (converted)): 6.61 nM
